{"source": "patent US11034656B2", "about": "“Maleate salts of (E)-N-(3-cyano-7-ethoxy-4-((4-phenoxyphenyl)amino) quinolin-6-yl)-4-(dimethylamino)but-2-enamide and crystalline forms thereof” (TELIGENE LTD, priority 2017, dated 2021)", "key": {"[1]": {"assay": "Crystallinity by PXRD", "format": "physicochemical", "description": "PXRD is performed in Rigaku UltimaIV diffractometer, copper target, λ=1.5406 A; working voltage 40 kv; working current: 40 Ma; scan speed: 60.000 deg./min; scan range: 4.0000->60.0000 deg."}, "[2]": {"assay": "Bioavailability in SD rats (I.V. and PO)", "format": "in vivo", "details": "rat, blood, male, I.V. 5 mg/kg, PO 10 mg/kg via gavage"}, "[3]": {"assay": "Hygroscopicity test", "format": "physicochemical", "details": "25° C.±1° C., relative humidity 80%±2%, 24 hours, (m3−m2)/(m2−m1)*100%", "description": "Hygroscopicity tests of ((E)-N-(3-cyano-7-ethoxy-4-((4-phenoxyphenyl)amino) quinolin-6-yl)-4-(dimethylamino)but-2-enamide in different acid salts have been carried out by the following method:\nTake the dry glass weighing bottle which has a plug (outer diameter is 50 mm, high is 15 mm); placed in a suitable 25° C.±1° C. constant temperature dryer (place a saturated solution of ammonium chloride or ammonium sulfate in the lower part) or artificial climate box (set the temperature to 25° C.±1° C. and the relative humidity to 80%±2%) one day before the test, accurately weighting its weight (m1).\nTake appropriate amount of the test sample and lay it in the above weighing bottle, the thickness of the test sample is generally 1 mm, accurately weighting its weight (m2).\nOpen the weighing bottle and place it at the constant temperature and humidity as above-mentioned for 24 hours with its plug.\nAccurately weighting its weight (m3), including the weighing bottle and its plug. Percentage of weight gain=(m3−m2)/(m2−m1)*100%"}}, "note": "Where a name gives a salt, the structure may show the parent alone. Read-outs that look alike come from different tables or passages of the source."}
{"smiles": "CCOc1cc2ncc(C#N)c(Nc3ccc(Oc4ccccc4)cc3)c2cc1NC(=O)/C=C/CN(C)C", "note": "[Citrate salt, (E)-N-(3-cyano-7-ethoxy-4-((4-phenoxyphenyl)amino)quinolin-6-yl)-4-(dimethylamino)but-2-enamide Citrate]", "values": [{"measurement": "Crystallinity by PXRD", "setting": "[1]; Citrate", "value": "crystalline"}, {"measurement": "bioavailability", "setting": "[2]", "value": 36.7, "unit": "%"}, {"measurement": "weight gain (%)", "setting": "[3]; Citrate", "value": 27.04, "unit": "%"}]}
{"smiles": "CCOc1cc2ncc(C#N)c(Nc3ccc(Oc4ccccc4)cc3)c2cc1NC(=O)/C=C/CN(C)C", "note": "[Hydrochloride acid salt, (E)-N-(3-cyano-7-ethoxy-4-((4-phenoxyphenyl)amino)quinolin-6-yl)-4-(dimethylamino)but-2-enamide Hydrochloride]", "values": [{"measurement": "Crystallinity by PXRD", "setting": "[1]", "value": "amorphous"}, {"measurement": "weight gain (%)", "setting": "[3]; Hydrochloride", "value": 46.67, "unit": "%"}]}
{"smiles": "CCOc1cc2ncc(C#N)c(Nc3ccc(Oc4ccccc4)cc3)c2cc1NC(=O)/C=C/CN(C)C", "note": "[L-malate salt, (E)-N-(3-cyano-7-ethoxy-4-((4-phenoxyphenyl)amino)quinolin-6-yl)-4-(dimethylamino)but-2-enamide Malate]", "values": [{"measurement": "Crystallinity by PXRD", "setting": "[1]; Malate", "value": "amorphous"}, {"measurement": "weight gain (%)", "setting": "[3]; Malate", "value": 16.36, "unit": "%"}]}
{"smiles": "CCOc1cc2ncc(C#N)c(Nc3ccc(Oc4ccccc4)cc3)c2cc1NC(=O)/C=C/CN(C)C.O=C(O)/C=C\\C(=O)O", "note": "[Maleate salt, (E)-N-(3-cyano-7-ethoxy-4-((4-phenoxyphenyl)amino)quinolin-6-yl)-4-(dimethylamino)but-2-enamide Maleate]", "values": [{"measurement": "Crystallinity by PXRD", "setting": "[1]", "value": "crytalline"}, {"measurement": "bioavailability", "setting": "[2]", "value": 49.6, "unit": "%"}, {"measurement": "weight gain (%)", "setting": "[3]", "value": 0.2, "unit": "%"}]}
{"smiles": "CCOc1cc2ncc(C#N)c(Nc3ccc(Oc4ccccc4)cc3)c2cc1NC(=O)/C=C/CN(C)C", "note": "[Sulphate salt, (E)-N-(3-cyano-7-ethoxy-4-((4-phenoxyphenyl)amino)quinolin-6-yl)-4-(dimethylamino)but-2-enamide Sulfate]", "values": [{"measurement": "weight gain (%)", "setting": "[3]; Sulfate", "value": 36.13, "unit": "%"}]}
